Measured values as given in patent US7671039B2 (Glucan Corporation, priority 2004, dated 2010).
Marks after values point to notes of the source that are not given here.

Assays:
[1] = tested on: ddY female mice with ovary extraction; assay: Histological indices of trabecular and cortical bone of thigh in ovary-extracted mice; assay type: in vivo; details: FOSA group: Fosamax 10 mg/kg oral, 4 weeks
Source text: (§1) For histological analysis of experimental animals, the left thigh of each mouse is separated to fix in 10% neutral buffer formalin (NBF) solution, and then delimed during 5 days at delime solution [24.4% formic acid, […]] (the mixed delime solution is exchanged each day one times during 3 days). And then it is fixed to paraffin and then made fraction ([…]) and dyed with hematoxylineosin.
Body weight, weight of both thigh, histological change including trabecular bone volume (TBV) % and Cortical bone thickness (Cbt) is analyzed. Also, histomorphometric changes of the trochoid bone of left thigh are observed. All experimental result of followings are shown with means±standard deviation. A statistical analysis is carried out by using SPSS For Windows (Release 6.1.3., SPSS Inc, USA) and Mann-Whitney U-Wilcoxon Rank Sum W test(M-W test).
TBV is calculated by using a Auto Image analysis (analySIS Image Processing; SIS, Germany) under 100 magnifications on a microscope (Zeiss, Germany) for regular size of trabecular bone at the trochoid bone of […] (excluding a growth plate). TBV is calculated with (%) unit.
A trabecular bone thickness (Tbt), a number of trabecular bone (Tbn), and a trabecular bone length (Tbl) are calculated by using a Auto Image analysis (analySIS Image Processing; SIS, Germany) under 100 magnifications on a microscope (Zeiss, Germany) for regular size at the trochoid bone of left thigh (excluding a growth plate). Tbt and Tbl are calculated with μm unit, and Tbn is calculated with a number of trabecular bone/all section of the trochoid bone section. Tbt and Tbl is calculated at trabecular bone that is most developed in a regular size of the trochoid bone section.
Cbt is measured at the trochlea neck of thigh and calculated by using a Auto Image analysis (analySIS Image Processing; SIS, Genmany) under 200 magnifications on a microscope (Zeiss, Germany) at prepared histological sample.

[2] = FOSA group: Fosamax 10 mg/kg oral; I: body weight after sacrifice − after administration
Protocol: 25 ddY female mice (age of 6 weeks, SLC, Japan) are used after adaptation during 7 days. The above animals are grouped each 5 and bred in a cage made of polycarbonate under the condition of temperature of 20˜25° C. and humidity of 30˜35%. A cycle of light and darkness is controlled to 12 hours: 12 hours. Feed stuff (Samyang Co., Korea) and water is fed freely. For 20 mice, the both ovary is taken out (ovary extraction : disclosing the both ovary, and then removing all of the both ovary, and then suturing with the same method), and for 5 mice, only sham surgical operation is carried out (sham surgical operation disclosing the both ovary by cutting (3 cm) a skin and an abdominal muscle, and then closing using a skin suturing technique). For the purpose of therapeutic research, a treatment is started after 4 weeks of the ovary extraction, each sample is administrated during 4 weeks.
All sample is stored at a refrigerate (−10° C.) to prevent from a moisture and light. […]
Change of body weight and increasing part is calculated after immediately surgical operation, after 4 weeks of surgical operation, after administration, and each week one times during experiment period. […] Also, an increasing part of body weight during adapting period (Increasing part I) and administrating period (Increasing part II) is calculated as followings. […]

[3] = tested on: ddY female mice with ovary extraction; assay: Weight of bone of both thighs in ovary-extracted mice; assay type: in vivo; details: wet weight, FOSA group: Fosamax 10 mg/kg oral, 4 weeks
Protocol: After sacrifice, a weight of bone of both thighs is calculated with g unit. To reduce an error arising from a difference of individual body weight, a weight of bone is calculated with relative weight as following equation. Weight of bone=[(absolute weight of bone/body weight at sacrifice)×100]

[4] = tested on: ddY female mice with ovary extraction; assay: Histomorphometric changes of left thigh, Hematoxylin-Eosin dyeing; assay type: in vivo
Protocol: as §1
A histomorphometric change of left thigh is analyzed by dyeing with Hematoxylin-Eosin.

SMILES: NCCCC(O)(P(=O)(O)O)P(=O)(O)O [FOSA, sodium alendronate]
- Tbn number of trabecular bone ([1]; control 3.40 ± 1.14): 15.20 ± 2.77
- Tbt(μm) trabecular bone thickness ([1]; control 66.40 ± 11.70): 93.60 ± 9.56 μm
- Cbt(μm) Cortical bone thickness ([1]; control 99.20 ± 20.46): 102.50 ± 22.29 μm
- Tbl(μm) trabecular bone length ([1]; control 524.40 ± 176.78): 759.40 ± 89.17*^,## μm
- TBV (%) trabecular bone volume ([1]; n = 5, control 20.23 ± 1.72, sham 47.31 ± 5.95): 35.13 ± 4.28%
- Increasing part II of body weight [2]: 3.26 ± 2.73
- Absolute weight of bone [3]: 0.075 ± 0.006 g
- histomorphometric changes of trabecular bone of left thigh (FIG. 3) ([4]; Fosamax and beta-glucan groups compared with control group, width or number lower than sham group): many an extended trabecular bone
- histomorphometric changes of cortical bone of left thigh (FIG. 4) ([4]; Fosamax group, 10 mg/kg oral, 4 weeks): Some increased or similar width and histomorphometric property comparing with control group
